Test results published in ChEMBL document CHEMBL5370688, “Development of HC-258, a Covalent Acrylamide TEAD Inhibitor That Reduces Gene Expression and Cell Migration” (ACS Med Chem Lett, 2023).
Activity calls are given as the source filed them. The rule behind the calls is not given here.

Columns and labels:
MDA-MB-231 [1] = assay: Inhibition of TEAD in human MDA-MB-231 cells assessed as reduction in CTGF gene expression level at 10 uM measured after 48 hrs by SYBR green staining based RT-qPCR analysis; type: cell-based
[2] = biological target: Transcriptional enhancer factor TEF-3 (Homo sapiens) (UniProt Q15561); assay: Binding affinity to TEAD4 (unknown origin) assessed as covalent adduct formation at 0.3 mM incubated for 2 hrs by Agilent LC/MSD Time-of-Flight Mass Spectrometric analysis
Chain of Transcriptional enhancer factor TEF-3 (Homo sapiens) (Q15561 whole entry): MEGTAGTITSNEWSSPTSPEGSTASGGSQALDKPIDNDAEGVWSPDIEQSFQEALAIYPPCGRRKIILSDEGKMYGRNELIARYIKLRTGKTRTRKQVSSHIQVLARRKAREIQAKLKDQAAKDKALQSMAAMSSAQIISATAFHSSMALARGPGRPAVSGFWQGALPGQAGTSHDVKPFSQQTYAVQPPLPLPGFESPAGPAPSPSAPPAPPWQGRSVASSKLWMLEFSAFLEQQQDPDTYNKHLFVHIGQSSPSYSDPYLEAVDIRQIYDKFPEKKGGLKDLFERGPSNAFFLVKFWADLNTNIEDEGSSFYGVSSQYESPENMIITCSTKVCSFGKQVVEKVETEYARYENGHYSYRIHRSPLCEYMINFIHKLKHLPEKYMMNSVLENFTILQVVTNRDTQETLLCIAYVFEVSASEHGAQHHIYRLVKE

[3] = biological target: Transcriptional enhancer factor TEF-3 (Homo sapiens) (UniProt Q15561); assay: Displacement of bodipy-PA from TEAD4 (unknown origin) measured after 30 mins by FP assay
MDA-MB-231 [4] = assay: Inhibition of TEAD in human MDA-MB-231 cells assessed as reduction in AXL gene expression level at 10 uM measured after 48 hrs by SYBR green staining based RT-qPCR analysis; type: cell-based
MDA-MB-231 [5] = assay: Inhibition of TEAD in human MDA-MB-231 cells assessed as reduction in Cyr61 gene expression level at 10 uM measured after 48 hrs by SYBR green staining based RT-qPCR analysis; type: cell-based
MDA-MB-231 [6] = assay: Inhibition of TEAD in human MDA-MB-231 cells assessed as reduction in NF2 gene expression level at 10 uM measured after 48 hrs by SYBR green staining based RT-qPCR analysis; type: cell-based
MDA-MB-231 [7] = assay: Cytotoxicity against human MDA-MB-231 cells at 10 uM; type: functional, cell-based
MDA-MB-231 [8] = assay: Inhibition of cell migration in human MDA-MB-231 cells at 10 uM incubated for 48 hrs by xCELLigence RTCA system analysis; type: functional, cell-based
[9] = tested on: YAP1-TEAD1 (Homo sapiens); assay: Inhibition of C-terminal NanoLuc-tagged TEAD1 (unknown origin)/C-terminal Halo-Tagged YAP1 (unknown origin) protein-protein interaction transfected in HEK293T cells at 10 uM using Nano-Glo as substrate pre incubated for 4 hrs followed by substrate addition and measured within 10 mins by NanoBRET …; conditions: time 250.0 min
[10] = biological target: Transcriptional enhancer factor TEF-3 (Homo sapiens) (UniProt Q15561); assay: Binding affinity to TEAD4 (unknown origin) assessed as partial covalent adduct formation at 0.3 mM incubated for 2 hrs by Agilent LC/MSD Time-of-Flight Mass Spectrometric analysis
[11] = biological target: Transcriptional enhancer factor TEF-3 (Homo sapiens) (UniProt Q15561); assay: Binding affinity to TEAD4 (unknown origin) assessed as change in aggregation temperature at 25 uM by DSLS thermal shift assay
[12] = biological target: Transcriptional enhancer factor TEF-3 (Homo sapiens) (UniProt Q15561); assay: Displacement of bodipy-PA from TEAD4 (unknown origin) measured after 30 mins by FP assay relative to control

## C=CC(=O)Nc1cccc(Nc2cccc(OCCCCC)c2)c1
MDA-MB-231 [1]
  inhibition: Active
[2]
  Activity: Active
[3]
  K: 3.6 µM
MDA-MB-231 [4]
  inhibition: Active
MDA-MB-231 [5]
  inhibition: Active
MDA-MB-231 [6]
  inhibition: Active
MDA-MB-231 [7]
  Activity: inactive
MDA-MB-231 [8]
  inhibition: Active
[9]
  inhibition: inactive

## CCCCCCc1cccc(Nc2ccccc2NC(=O)C=C(C)C)c1
[2]
  Activity: inactive

## C=CC(=O)Nc1ccccc1Nc1cccc(OCCCCC)c1
MDA-MB-231 [1]
  inhibition: Active
[10]
  Activity: Active
[3]
  K: > 20 µM
MDA-MB-231 [4]
  inhibition: Active
MDA-MB-231 [5]
  inhibition: Active
MDA-MB-231 [6]
  inhibition: Active
MDA-MB-231 [7]
  Activity: inactive
MDA-MB-231 [8]
  inhibition: Active

## C=CC(=O)Nc1ccccc1Nc1cccc(CCCCCC)c1
MDA-MB-231 [1]
  inhibition: Active
[10]
  Activity: Active
[3]
  K: 2.7 µM
MDA-MB-231 [4]
  inhibition: Active
MDA-MB-231 [5]
  inhibition: Active
MDA-MB-231 [6]
  inhibition: Active
MDA-MB-231 [7]
  Activity: Active

## O=C(O)c1ccccc1Nc1cccc(C(F)(F)F)c1
MDA-MB-231 [8]
  inhibition: inactive

## CCCCCOc1cccc(Nc2cccc(NC(C)=O)c2)c1
[11]
  deltaT: 2.5 °C
MDA-MB-231 [1]
  inhibition: inactive
[2]
  Activity: inactive
[3]
  K: > 25 µM
MDA-MB-231 [4]
  inhibition: inactive
MDA-MB-231 [5]
  inhibition: inactive
MDA-MB-231 [6]
  inhibition: inactive
MDA-MB-231 [7]
  Activity: inactive
MDA-MB-231 [8]
  inhibition: inactive
[9]
  inhibition: inactive

## CCCCCCc1cccc(Nc2ccccc2NC(=O)CCl)c1
[2]
  Activity: Active
[12]
  inhibition: 80%
[3]
  K: 2.3 µM

## CCCCCCc1cccc(Nc2cccc(NC(=O)C=C(C)C)c2)c1
[2]
  Activity: inactive

## CCCCCCc1cccc(Nc2cccc(NC(=O)CCl)c2)c1
MDA-MB-231 [1]
  inhibition: Active
[2]
  Activity: Active
[3]
  K: 1 µM
MDA-MB-231 [4]
  inhibition: inactive
MDA-MB-231 [5]
  inhibition: Active
MDA-MB-231 [6]
  inhibition: inactive
MDA-MB-231 [7]
  Activity: inactive

## C=CC(=O)Nc1cccc(Nc2cccc(CCCCCC)c2)c1
MDA-MB-231 [1]
  inhibition: Active
[2]
  Activity: Active
[3]
  K: 1.3 µM
MDA-MB-231 [4]
  inhibition: Active
MDA-MB-231 [5]
  inhibition: Active
MDA-MB-231 [6]
  inhibition: Active
MDA-MB-231 [7]
  Activity: Active

## CCCCCCc1cccc(Nc2cccc(NC(=O)C3CC3)c2)c1
[2]
  Activity: inactive

## CCCCCOc1cccc(Nc2cccc(NC(=O)CCl)c2)c1
[2]
  Activity: Active
[3]
  K: 3.1 µM
MDA-MB-231 [7]
  Activity: inactive
